Literature values, collected in PMC6311893, “Computational prediction of plasma protein binding of cyclic peptides from small molecule experimental data using sparse modeling techniques” (BMC Bioinformatics, 2018).

system: plasma protein; settings: cited from earlier work

In the case of `COc1ccc(/C=C\c2cc(OC)c(OC)c(OC)c2)cc1OP(=O)(O)O` [Combretastatin A4 phosphate], the “PPB (fb)” value is given as 0.77.

same assay, conditions: fraction bound to plasma protein; small molecule dataset, sheet 1-SM (Set Dte = test, Dtr = training); ref Ingle et al.; cited from earlier work

In order of falling “PPB (fb)” value:
1. O=C(O)CCNC(=O)c1ccc(/N=N/c2ccc(O)c(C(=O)O)c2)cc1 [balsalazide]  0.99
2. CC(C)(C)N1CCC(c2ccccc2)(c2ccccc2)CC1 [budipine]  0.96
3. Nc1ccc(S(=O)(=O)Nc2ccnn2-c2ccccc2)cc1 [sulfaphenazole]  0.95
4. CN(C)CCC=C1c2ccccc2CCc2ccccc21 [Amitriptyline]  0.94
5. CC(C)CN(C[C@@H](O)[C@H](Cc1ccccc1)NC(=O)O[C@H]1CCOC1)S(=O)(=O)c1ccc(N)cc1 [amprenavir]  0.9
6. N=C(N)N1CCc2ccccc2C1 [debrisoquine]  0.85
7. O=C1NCCN1c1ncc([N+](=O)[O-])s1 [niridazole]  0.85
8. C=CCOc1ccccc1OCC(O)CNC(C)C (stereo not drawn) [oxprenolol]  0.77
9. C[C@@H]([C@@H](O)c1ccc(O)cc1)N1CCC(O)(c2ccccc2)CC1 [Traxoprodil]  0.37
10. O=C(O)CCCC[C@@H]1SC[C@@H]2NC(=O)N[C@@H]21 [biotin]  0.2
11. CN(C)CCCOc1nn(Cc2ccccc2)c2ccccc12 [benzydamine]  0.1

same assay, conditions: fraction bound to plasma protein; small molecule dataset, sheet 1-SM, Set Dtr; ref Ingle et al.; cited from earlier work

In order of rising “PPB (fb)” value:
1. NC(N)=Nc1nc(CSCCC(N)=NS(N)(=O)=O)cs1 [Famotidine]  0.16
2. NC(=O)OC[C@@H]1[C@H](NC(=O)/C(=N\OCC(=O)O)c2csc(N)n2)C(=O)N1S(=O)(=O)O [Carumonam]  0.28
3. CO[C@@]1(NC(=O)C(C(=O)O)c2ccc(O)cc2)C(=O)N2C(C(=O)O)=C(CSc3nnnn3C)CO[C@@H]21 (stereo partly drawn) [Moxalactam]  0.53
4. CC(Oc1ccccc1)C(=O)N[C@@H]1C(=O)N2[C@@H]1SC(C)(C)[C@@H]2C(=O)O (stereo partly drawn) [Phenethicillin]  0.75

same assay, conditions: fraction bound to plasma protein; small molecule dataset, sheet 1-SM; ref Ingle et al.; cited from earlier work

In order of falling “PPB (fb)” value:
1. CC(Oc1ccc(Cl)c(Cl)c1)C(=O)NC1C(=O)N2C1SC(C)(C)C2C(=O)O (stereo not drawn) [penicillin58]  0.97
2. COc1c(C)c2c(c(O)c1C/C=C(\C)CCC(=O)O)C(=O)OC2 [mycophenolic acid]  0.96
3. CCC(COc1c(Cl)cccc1Cl)C(=O)NC1C(=O)N2C1SC(C)(C)C2C(=O)O (stereo not drawn) [penicillin63]  0.95
4. O=C1NC(c2ccccc2)(c2ccccc2)C(=O)N1COP(=O)(O)O [fosphenytoin]  0.95
5. CC1(C)SC2C(NC(=O)C(Cl)c3ccc(Cl)cc3)C(=O)N2C1C(=O)O (stereo not drawn) [penicillin24]  0.94
6. CN1CCN2c3ccccc3Cc3ccccc3C2C1 (stereo not drawn) [mianserin]  0.93
7. CC(C(N)=O)c1ccc(OS(=O)(=O)C(F)(F)F)cc1 (stereo not drawn) [JMC_03]  0.92
8. O=C(O)c1ccccc1Nc1cccc(C(F)(F)F)c1 [flufenamic acid]  0.9
9. CCCC(CCC)C(=O)O [Valproic Acd]  0.9
10. COc1c2occc2cc2ccc(=O)oc12 [methoxsalen]  0.83
11. Cc1cc2nc3c(=O)[nH]c(=O)nc-3n(C[C@H](O)[C@H](O)[C@H](O)CO)c2cc1C [riboflavin]  0.6
12. COc1cnc2ccccc2c1C(=O)NC1C(=O)N2C1SC(C)(C)C2C(=O)O (stereo not drawn) [penicillin76]  0.57
13. CCOC(=O)[C@H](CCc1ccccc1)N[C@@H](C)C(=O)N1CCC[C@H]1C(=O)O [enalapril]  0.55
14. Cc1ccc(N(CC2=NCCN2)c2cccc(O)c2)cc1 [phentolamine]  0.54

same assay, conditions: plasma; cited from earlier work

In order of rising “PPB (fb)” value:
1. CCC1(c2ccccc2)C(=O)NC(=O)N(C)C1=O (stereo not drawn) [methylphenobarbital]  0.5
2. C=CCC1(C(C)CCC)C(=O)NC(=O)NC1=O (stereo not drawn) [quinalbarbitone]  0.5
3. nafarelin  0.8
4. Brotizolam  0.9
5. CN1C(=O)CC(=O)N(c2ccccc2)c2cc(Cl)ccc21 [clobazam]  0.92
6. C#C[C@]1(O)CC[C@H]2[C@@H]3CCc4cc(OS(=O)(=O)O)ccc4[C@H]3CC[C@@]21C [Ethinylestradiol-3-Sulfate]  0.99
